The values that follow come from ChEMBL document CHEMBL1131124, “Selective inhibitors of human lactate dehydrogenases and lactate dehydrogenase from the malarial parasite Plasmodium falciparum” (J Med Chem, 1998).

The target of the assay is L-lactate dehydrogenase B chain (Homo sapiens, UniProt P07195).
L-lactate dehydrogenase B chain, sequence (P07195 whole entry): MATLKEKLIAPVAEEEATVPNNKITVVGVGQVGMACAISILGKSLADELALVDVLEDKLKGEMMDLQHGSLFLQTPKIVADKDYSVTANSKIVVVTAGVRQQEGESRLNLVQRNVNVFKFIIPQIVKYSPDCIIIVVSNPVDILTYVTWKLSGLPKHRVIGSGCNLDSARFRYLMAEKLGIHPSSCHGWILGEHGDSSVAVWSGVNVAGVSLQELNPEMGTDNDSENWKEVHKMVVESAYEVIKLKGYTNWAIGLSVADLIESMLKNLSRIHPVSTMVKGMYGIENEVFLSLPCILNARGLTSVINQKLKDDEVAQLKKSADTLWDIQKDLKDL
Description: inhibitory activity against Human Lactate Dehydrogenase (LDH-H)
As usually defined, the Ki is a dissociation constant, usually derived from enzyme kinetics or from competition with a known ligand. Turning to `CCCc1c(O)c(O)c(C(=O)O)c2cc(Cc3ccccc3)c(C)cc12`, the Ki was 1 µM.
In turn, `CCCc1c(O)c(O)c(C(=O)O)c2ccc(C)cc12` came in with a Ki of 49 µM.
The figure for `Cc1cc2c(C(C)C)c(O)c(O)c(C(=O)O)c2cc1Cc1ccccc1` is 7 µM.
